Numbered stars: 1 amine (or outer) side, 2 acyl side, 3 side chain; on linkers, the order of the positions; unused ones are H or OH. Bridge positions count the residues as written; N and C are the ends. Square brackets hold non-standard residues; d marks the D form. Side chains are listed from the residue outwards. Peptide text beside a SMILES is read from it. * marks the point of attachment. Cholyl = C[C@H](CCC(=O)*)[C@H]1CC[C@H]2[C@@H]3[C@H](O)C[C@@H]4C[C@H](O)CC[C@]4(C)[C@H]3C[C@H](O)[C@]12C; Adamantane1carbonyl = O=C(C12CC3CC(CC(C3)C1)C2)*; Hexadecanoyl(16-OH) = O=C(CCCCCCCCCCCCCCCO)*; X1 = O=C([C@H]1C[C@H](N[*:3])CN1[*:1])[*:2]; NH(1-Adamantyl) = C1C2CC3CC1CC(N*)(C2)C3; Gly(decyl) = CCCCCCCCCC[C@H](N)C(=O)O; Myristoyl = CCCCCCCCCCCCCC(=O)*; Octanoyl = CCCCCCCC(=O)*; Dab = NCC[C@H](N)C(=O)O
Columns and labels:
[1] = Cytotoxicity, MTT reduction assay, COS-7 cells; type: cell-based; details: 48 h, 12.5-50 μM
Description: (§1) Mouse pre-B cells were cultured in RPMI1640 plus 5% FBS, antibiotic/antimycotic, non essential amino acid, 50 μM β-mercaptoethanol and 1 mM natrium pyruvate. HELA cells were maintained in RPMI1640 plus 10% FBS, pen/strept and 2 mM L-glutamine. Cos-7 cells were grown in DMEM medium with […] glucose supplemented with 10% FCS, pen/strept and 2 mM L-glutamine. All cell lines were grown at 37° C. at 5% CO2. Cell media, media supplements, PBS-buffer, HEPES, antibiotic/antimycotic, pen/strept, non essential amino acid, L-glutamine, β-mercaptoethanol and sera were purchased from Gibco (Pailsey, UK). All fine chemicals were supplied by Merck (Darmstadt, Germany).
(§2) The cytotoxicity of the peptides to HELA cells (Acc57) and COS-7 cells (CRL-1651) was determined using the MTT reduction assay (T. Mossman, J. Immunol. Meth. 1983, 65, 55-63; M. V. Berridge, A. S. Tan, Arch. Biochem. Biophys. 1993, 303, 474-482). Briefly, the method was as follows: 4000 HELA cells/well and 3400 COS-7 cells/well were seeded and grown in 96-well microtiter plates for 24 h at 37° C. at 5% CO2. Thereafter, time zero (Tz) was determined by MTT reduction (see below). The supernatant of the remaining wells was discarded, and fresh medium and compounds in serial dilutions (12.5, 25 and 50 μM, triplicates) were pipetted into the wells. After incubation of the cells for 48 h at 37° C. at 5% CO2 the supernatant was discarded again and 100 μL MTT reagent (0.5 mg/mL in RPMI1640 and DMEM, respectively)/well was added. Following incubation at 37° C. for 2-4 h the media were aspirated and the cells were spiked (100 μL isopropanol/well). The absorbance of the solubilized formazan was measured at 595 nm (OD595peptide). For each concentration averages were calculated from triplicates. The percentage of growth was calculated as follows: (OD595peptide-OD595Tz-OD595Empty well)/(OD595Tz-OD595Empty well)×100%. The GI50 (Growth Inhibition) concentrations were calculated for each peptide by using a trend line function for the concentrations (50, 25, 12.5 and 0 μM), the corresponding percentages and the value 50, (=TREND (C50: C0, %50:%0,50).

[2] = Plasma stability in mouse plasma; type: in vitro ADME; details: mouse plasma, 37° C.; for remaining at 24 h, 10 μM: 1440 min, read-out: mouse pl. cpd left at 1440 min; for mouse pl. T1/2: up to 1440 min
Description: (§3) Percent hemolysis was calculated as follows: (OD540peptide/OD540H2O)×100%. 2.6. Plasma Stability
(§4) The stability of the peptides in human and mouse plasma was determined by applying the following method: 346.5 μL/deep well of freshly thawed human plasma (Basler Blutspendedienst) and mouse plasma (Harlan Sera-Lab, UK), respectively, were spiked with 3.5 μL/well of compound dissolved in DMSO/H2O ([…] [v/v], 1 mM, triplicate) and incubated at 37° C. At t=0, 15, 30, 60, 120, 240 and 1440 min aliquots of 50 μL were transferred to filtration plate wells containing 150 μL/well of 2% formic acid in acetonitrile. Following shaking for 2 min the occurred suspensions were filtrated by vacuum and 50 μL of each filtrate was mixed with 100 μL of 1% formic acid in H2O. After transfer to a propylene microtiter plate, the filtrates were analyzed by LC/MS as follows: Column: Waters, XBridge C18, mobile phases: (A) water+0.1% formic acid and (B) acetonitrile/water, 95/5 (v/v)+0.1% formic acid, gradient: 5%-100% (B) in 2 minutes, electrospray ionization, MRM detection (triple quadrupole). The peak areas were determined and triplicate values are averaged. The stability is expressed in percent of the initial value at t=0. (tx/t0×100). By using the TREND function of EXCEL (Microsoft Office 2003) T1/2 were determined.

[3] = Plasma stability in human plasma; type: in vitro ADME; details: human plasma, 37° C.; for remaining at 24 h, 10 μM: 1440 min, read-out: human pl. cpd left at 1440 min; for half-life / human pl. T1/2: up to 1440 min; for half-life: read-out: human pl. T1/2
Description: as §3, §4

[4] = Cytotoxicity, MTT reduction assay, HELA cells; type: cell-based; details: 48 h, 12.5-50 μM
Description: as §1, §2

SMILES	GI50 ([1]; COS-7 cells) [µM]	remaining at 24 h, 10 μM [2] [%]	mouse pl. T1/2 [2] [h]	remaining at 24 h, 10 μM [3] [%]	half-life [3] [h]	GI50 ([4]; HELA cells) [µM]	human pl. T1/2 [3] [h]	GI50 [1] [µM]	GI50 [4] [µM]
CCCCCCCCCCCCCC(=O)N[C@H]1C[C@@H]2C(=O)N[C@@H](CCN)C(=O)N[C@@H](CCCNC(=N)N)C(=O)N[C@@H](Cc3ccc(O)cc3)C(=O)N[C@H]3CSSC[C@H](NC(=O)[C@H]([C@@H](C)O)NC(=O)[C@H](Cc4c[nH]cn4)NC(=O)[C@H](Cc4ccc(O)cc4)NC(=O)[C@@H]4CCCN4C(=O)[C@H]4CCCN4C(=O)[C@H](CCC(N)=O)NC(=O)[C@H](CCC(N)=O)NC(=O)[C@H](Cc4ccc(O)cc4)NC3=O)C(=O)N[C@@H](CCCNC(=N)N)C(=O)NCC(=O)N2C1 [Ex. 4] (cyclo(YHTCRG[X1](Myristoyl)[Dab]RYCYQQ[dP]P); disulfide 4-11)	> 50	62	24	66	5.25	> 50	–	–	–
CCCCCCCCCC[C@@H]1NC(=O)[C@H](Cc2ccc(O)cc2)NC(=O)[C@@H]2CSSC[C@H](NC(=O)[C@H](Cc3ccc(O)cc3)NC(=O)[C@H](Cc3c[nH]cn3)NC(=O)[C@H](Cc3ccc(O)cc3)NC(=O)[C@@H]3CCCN3C(=O)[C@H]3CCCN3C(=O)[C@H](CCCCN)NC1=O)C(=O)N[C@@H](CCCNC(=N)N)C(=O)N[C@@H](C)C(=O)N1CCC[C@@H]1C(=O)N[C@@H](CCN)C(=O)N[C@@H](CCCNC(=N)N)C(=O)N[C@@H](Cc1ccc(O)cc1)C(=O)N2 [Ex. 8] (cyclo(YHYCRA[dP][Dab]RYCY[Gly(decyl)]K[dP]P); disulfide 4-11)	> 44	82	24	79	–	> 26	24	–	–
C[C@@H]1NC(=O)[C@H](CO)NC(=O)[C@@H]2CSSC[C@H](NC(=O)[C@H](Cc3ccc(O)cc3)NC(=O)[C@H](CCCNC(=N)N)NC(=O)[C@H](CCN)NC(=O)[C@H]3CCCN3C1=O)C(=O)N[C@@H](Cc1ccc(O)cc1)C(=O)N[C@@H](CCCCNC(=O)CCCCCCCCCCCCCCCO)C(=O)N[C@@H](CCCCN)C(=O)N1CCC[C@@H]1C(=O)N1CCC[C@H]1C(=O)N[C@@H](Cc1ccc(O)cc1)C(=O)N[C@@H](Cc1c[nH]cn1)C(=O)N[C@@H](Cc1ccc(O)cc1)C(=O)N2 [Ex. 21] (cyclo(YHYCSA[dP][Dab]RYCYK(Hexadecanoyl(16-OH))K[dP]P); disulfide 4-11)	–	63	24	49	18.6	–	–	> 50	> 50
C[C@@H](O)[C@@H]1NC(=O)[C@H](Cc2c[nH]cn2)NC(=O)[C@H](Cc2ccc(O)cc2)NC(=O)[C@@H]2CCCN2C(=O)[C@H]2CCCN2C(=O)[C@H](CCC(N)=O)NC(=O)[C@H](CCC(=O)NC23CC4CC(CC(C4)C2)C3)NC(=O)[C@H](Cc2ccc(O)cc2)NC(=O)[C@@H]2CSSC[C@H](NC1=O)C(=O)N[C@@H](CCCNC(=N)N)C(=O)NCC(=O)N1CCC[C@@H]1C(=O)N[C@@H](CCN)C(=O)N[C@@H](CCCNC(=N)N)C(=O)N[C@@H](Cc1ccc(O)cc1)C(=O)N2 [Ex. 31] (cyclo(YHTCRG[dP][Dab]RYCYE(NH(1-Adamantyl))Q[dP]P); disulfide 4-11)	–	–	–	68	–	–	24	> 50	> 37
CCCCCCCC(=O)NCCCC[C@@H]1NC(=O)[C@H](CCC(N)=O)NC(=O)[C@H](Cc2ccc(O)cc2)NC(=O)[C@@H]2CSSC[C@H](NC(=O)[C@H](Cc3ccc(O)cc3)NC(=O)[C@H](CCCNC(=N)N)NC(=O)[C@H](Cc3ccc(O)cc3)NC(=O)[C@@H]3CCCN3C(=O)[C@H]3CCCN3C1=O)C(=O)N[C@@H](CO)C(=O)N[C@@H](C)C(=O)N1CCC[C@@H]1C(=O)N[C@@H](CCN)C(=O)N[C@@H](CCCNC(=N)N)C(=O)N[C@@H](Cc1ccc(O)cc1)C(=O)N2 [Ex. 32] (cyclo(YRYCSA[dP][Dab]RYCYQK(Octanoyl)[dP]P); disulfide 4-11)	> 50	–	–	39	12.9	> 24	–	–	–
C[C@@H]1NC(=O)[C@H](CO)NC(=O)[C@@H]2CSSC[C@H](NC(=O)[C@H](Cc3ccc(O)cc3)NC(=O)[C@H](CCCNC(=N)N)NC(=O)[C@H](CCN)NC(=O)[C@H]3CCCN3C1=O)C(=O)N[C@@H](Cc1ccc(O)cc1)C(=O)N[C@@H](CCC(N)=O)C(=O)N[C@@H](CCCCNC(=O)CNC(=O)CC[C@@H](C)[C@H]1CC[C@H]3[C@@H]4[C@H](O)C[C@@H]5C[C@H](O)CC[C@]5(C)[C@H]4C[C@H](O)[C@]13C)C(=O)N1CCC[C@@H]1C(=O)N1CCC[C@H]1C(=O)N[C@@H](Cc1ccc(O)cc1)C(=O)N[C@@H](CCCNC(=N)N)C(=O)N[C@@H](Cc1ccc(O)cc1)C(=O)N2 [Ex. 33] (cyclo(YRYCSA[dP][Dab]RYCYQK([Gly-Cholyl])[dP]P); disulfide 4-11)	> 50	–	–	61	20.4	> 18	–	–	–
C[C@@H](O)[C@@H]1NC(=O)[C@H](Cc2c[nH]cn2)NC(=O)[C@H](Cc2ccc(O)cc2)NC(=O)[C@@H]2CCCN2C(=O)[C@H]2CCCN2C(=O)[C@H](CCCCNC(=O)C23CC4CC(CC(C4)C2)C3)NC(=O)[C@H](CCC(N)=O)NC(=O)[C@H](Cc2ccc(O)cc2)NC(=O)[C@@H]2CSSC[C@H](NC1=O)C(=O)N[C@@H](CCCNC(=N)N)C(=O)NCC(=O)N1CCC[C@@H]1C(=O)N[C@@H](CCN)C(=O)N[C@@H](CCCNC(=N)N)C(=O)N[C@@H](Cc1ccc(O)cc1)C(=O)N2 [Ex. 35] (cyclo(YHTCRG[dP][Dab]RYCYQK(Adamantane1carbonyl)[dP]P); disulfide 4-11)	–	–	–	63	–	–	24	> 30	> 50
C[C@@H](O)[C@@H]1NC(=O)[C@H](Cc2c[nH]cn2)NC(=O)[C@H](Cc2ccc(O)cc2)NC(=O)[C@@H]2CCCN2C(=O)[C@H]2CCCN2C(=O)[C@H](CCC(=O)NC23CC4CC(CC(C4)C2)C3)NC(=O)[C@H](CCC(N)=O)NC(=O)[C@H](Cc2ccc(O)cc2)NC(=O)[C@@H]2CSSC[C@H](NC1=O)C(=O)N[C@@H](CCCNC(=N)N)C(=O)NCC(=O)N1CCC[C@@H]1C(=O)N[C@@H](CCN)C(=O)N[C@@H](CCCNC(=N)N)C(=O)N[C@@H](Cc1ccc(O)cc1)C(=O)N2 [Ex. 36] (cyclo(YHTCRG[dP][Dab]RYCYQE(NH(1-Adamantyl))[dP]P); disulfide 4-11)	–	–	–	53	23.2	–	–	> 50	> 50

Reference: patent US8716242B2, “β-hairpin peptidomimetics” (priority 2009, dated 2014)
